Patent publication US12616753B2, “HSP70 inhibitors and methods of using same” (THE WISTAR INSTITUTE, priority 2020, dated 2026)

Columns and labels:
HSP70 = biological target: T1, HSP70 (Homo sapiens, UniProt P0DMV8); test: HSP70 competition assay in H1299 cells; assay type: binding; conditions: 10 μM, one-hour pre-incubation
T1 construct: BAP-4-139B successfully precipitated a single protein from H1299 cells; endogenous in cells; host or cells: H1299 human lung carcinoma cells
Protocol: FIGS. 1A-1D show ATPase inhibition and direct binding of a novel HSP70 inhibitor. FIG. 1A: Compounds AP-3-97 and AP-4-139B are direct inhibitors of HSP70. HSP70 mediated ATPase activity was assessed using the TRANSCREENER® ADP-FI assay. Five microliters of 30 nM purified human HSP70 in assay buffer was added to test compounds for 30 minutes, followed by addition of excess ATP. After 15 minutes, reactions were stopped and fluorescence was assessed on a plate reader. Data are normalized to percent inhibition, where 100% is the value in the absence of HSP70, and 0% is the value in the presence of HSP70. Compounds shown include PET-16 (positive control) and the novel HSP70 inhibitors AP-3-97 and AP-4-139B. VY-3-277 was used as a negative control. FIG. 1B: Compound AP-4-139B binds HSP70. Whole cell extracts (WCE) from H1299 cells were incubated with 10 μM Biotin or with a Biotin-labeled variant of AP-4-139B (Biotin-AP-4-139B) for 5 hours. Biotin-AP-4-139B containing complexes were captured using NeutrAvidin resins and separated by SDS-PAGE. The Coomassie-stained protein band of approximately 70 kDa was excised and subjected to tryptic digestion and liquid chromatography-tandem mass spectrometry, and identified to be HSP70. […] Data were analyzed using the evaluation software from Biacore and the resulting sensograms were exported and re-plotted in GraphPad Prism. […]

[1] = tested on: 1205Lu and HT-29 tumor cell lines; test: Seahorse XF Cell Mito Stress Test, tumor cell lines; assay type: cell-based, human; conditions: 500 nM (sublethal), 24 hours
Protocol: (§1) FIG. 2A: IMR90 cells (non-transformed fibroblasts), 1205Lu (melanoma), and HT-29 (CRC) cancer cells were treated with sub-lethal doses (500 nM) of the HSP70 inhibitors PET-16 (positive control) or AP-4-139B for 24 hours. Cells were then subjected to the Seahorse Mito Stress Test Assay. Injections were Oligomycin (1 μM, line A), FCPP (0.5-1 μM, line B), and Rotenone/Antimycin A (1 μM, line C). Each graphical representation indicates the mean±standard deviation of a minimum of 5 technical replicates. […] Each experiment was performed in triplicate and independently repeated twice. FIGS. 2B-2D: Basal Oxygen Consumption Rate (ORC) (FIG. 2B), Maximal OCR (FIG. 2C), and ATP production (FIG. 2D) were analyzed in IMR90 fibroblasts, non-transformed colonic epithelial cells (CCD 841 CoN), 1205Lu melanoma cells and HT-29 CRC cells, in the presence or absence of 500 nM HSP70 inhibitors or negative control (VY-3-277). All experiments were performed in triplicate, with each group containing 5-6 technical replicates. ** p<0.01, *** p<0.001, n.s. not significant.
(§2) The XF Cell Mito Stress Test was performed. […] For extracellular ATP release, ATP was measured using the CellTiter-Glo Kit (Promega catalog #G7570). […] 10 μl of CellTiter-Glo Reaction Mix was then mixed with 10 μl of culture media; the luminescence signal was detected using a luminometer.

[2] = tested on: IMR90 and CCD 841 CoN cells; test: Seahorse XF Cell Mito Stress Test, normal cells; assay type: cell-based, human; conditions: 500 nM (sublethal), 24 hours
Protocol: as §1, §2

T1 sequence (P0DMV8 whole entry): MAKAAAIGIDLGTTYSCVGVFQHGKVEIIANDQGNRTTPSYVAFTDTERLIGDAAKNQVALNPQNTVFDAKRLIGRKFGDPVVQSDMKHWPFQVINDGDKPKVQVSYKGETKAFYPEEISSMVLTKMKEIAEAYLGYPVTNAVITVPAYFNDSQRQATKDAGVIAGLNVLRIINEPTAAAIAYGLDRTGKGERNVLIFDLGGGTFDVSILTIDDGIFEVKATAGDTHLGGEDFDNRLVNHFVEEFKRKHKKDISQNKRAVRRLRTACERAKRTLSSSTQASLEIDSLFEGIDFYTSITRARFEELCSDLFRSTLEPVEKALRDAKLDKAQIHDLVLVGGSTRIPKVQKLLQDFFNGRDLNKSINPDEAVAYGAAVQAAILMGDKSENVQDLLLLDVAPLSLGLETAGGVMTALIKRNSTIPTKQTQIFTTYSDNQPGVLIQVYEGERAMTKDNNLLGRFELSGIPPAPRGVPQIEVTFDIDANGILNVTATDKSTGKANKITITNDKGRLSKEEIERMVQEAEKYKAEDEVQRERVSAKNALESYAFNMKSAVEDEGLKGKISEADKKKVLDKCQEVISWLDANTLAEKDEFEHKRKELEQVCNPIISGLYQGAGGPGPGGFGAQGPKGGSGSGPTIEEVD

SMILES | prevention of BAP-4-139B pull down of HSP70 (HSP70) | basal oxygen consumption rate and ATP production in tumor cell lines [1] | mitochondrial function in normal cells [2]
c1ccc(-c2cn3nc(CCCCCC[P+](c4ccccc4)(c4ccccc4)c4ccccc4)sc3n2)cc1 [AP-4-139B, Triphenyl(6-(6-phenylimidazo[2,1-b][1,3,4]thiadiazol-2-yl)hexyl)phosphonium bromide] | prevented the ability of BAP-4-139B to pull down HSP70 | reduced basal oxygen consumption rate and ATP production | largely unaffected
C(#C[P+](c1ccccc1)(c1ccccc1)c1ccccc1)c1ccccc1 [PET-16, Triphenyl(phenylethynyl)phosphonium bromide, reference compound] | prevented the ability of BAP-4-139B to pull down HSP70 | minimal activity | largely unaffected
